Experimental data published in PubChem BioAssay (NCI).
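Compound exposure: 48 hours, 5 concentrations, 96-well plates. Abbreviation: GI50, concentration required for 50% inhibition of growth. TGI: total growth inhibition.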

Tests used:
Assay in all cases: growth of human tumour cells (NCI), 48 h
SK-OV-3 ovarian = test system: SK-OV-3 ovarian
SW-620 colon = test system: SW-620 colon
SN12C renal = test system: SN12C renal
HOP-92 NSCLC = test system: HOP-92 NSCLC
COLO 205 colon = test system: COLO 205 colon
M14 melanoma = test system: M14 melanoma
OVCAR-3 ovarian = test system: OVCAR-3 ovarian
786-0 renal = test system: 786-0 renal
EKVX NSCLC = test system: EKVX NSCLC
CCRF-CEM leukemia = test system: CCRF-CEM leukemia
HCC-2998 colon = test system: HCC-2998 colon
SF-295 CNS = test system: SF-295 CNS
UACC-62 melanoma = test system: UACC-62 melanoma
HCT-116 colon = test system: HCT-116 colon
RPMI-8226 leukemia = test system: RPMI-8226 leukemia
OVCAR-4 ovarian = test system: OVCAR-4 ovarian
HS 578T breast = test system: HS 578T breast
UO-31 renal = test system: UO-31 renal
BT-549 breast = test system: BT-549 breast
SF-268 CNS = test system: SF-268 CNS
SNB-75 CNS = test system: SNB-75 CNS
ACHN renal = test system: ACHN renal
PC-3 prostate = test system: PC-3 prostate
NCI-H23 lung = test system: NCI-H23 lung
HOP-62 NSCLC = test system: HOP-62 NSCLC
LOX IMVI melanoma = test system: LOX IMVI melanoma
MDA-MB-231 breast = test system: MDA-MB-231 breast
A549 NSCLC = test system: A549 NSCLC
IGROV1 ovarian = test system: IGROV1 ovarian
SK-MEL-28 melanoma = test system: SK-MEL-28 melanoma
HL-60(TB) leukemia = test system: HL-60(TB) leukemia
DU-145 prostate = test system: DU-145 prostate
MOLT-4 leukemia = test system: MOLT-4 leukemia
MDA-MB-468 breast = test system: MDA-MB-468 breast
OVCAR-5 ovarian = test system: OVCAR-5 ovarian
UACC-257 melanoma = test system: UACC-257 melanoma
NCI-H460 lung = test system: NCI-H460 lung
T-47D breast = test system: T-47D breast
KM12 colon = test system: KM12 colon
MCF7 breast = test system: MCF7 breast
A498 renal = test system: A498 renal
K-562 leukemia = test system: K-562 leukemia
NCI-H522 lung = test system: NCI-H522 lung
SK-MEL-2 melanoma = test system: SK-MEL-2 melanoma
NCI/ADR-RES ovarian = test system: NCI/ADR-RES ovarian
OVCAR-8 ovarian = test system: OVCAR-8 ovarian
TK-10 renal = test system: TK-10 renal
MDA-MB-435 = test system: MDA-MB-435
NCI-H226 lung = test system: NCI-H226 lung
SNB-19 CNS = test system: SNB-19 CNS
SF-539 CNS = test system: SF-539 CNS
CAKI-1 renal = test system: CAKI-1 renal
SR leukemia = test system: SR leukemia
MALME-3M melanoma = test system: MALME-3M melanoma
RXF 393 renal = test system: RXF 393 renal
HT29 colon = test system: HT29 colon
U251 CNS = test system: U251 CNS
SK-MEL-5 melanoma = test system: SK-MEL-5 melanoma
HCT-15 colon = test system: HCT-15 colon

`COc1cc2oc(-c3cccc(C(=O)Nc4ccc(Cl)cc4)c3)cc(=O)c2c(OCCNC(=O)[C@H](CO)NC(=O)OC(C)(C)C)c1OC` showed a GI50 (SK-OV-3 ovarian) of 79.2 µM, a TGI (SK-OV-3 ovarian) greater than 100 µM and a GI50 (SW-620 colon) of 30.1 µM. The TGI (SW-620 colon) was greater than 100 µM, the GI50 (SN12C renal) was 8.47 µM and the TGI (SN12C renal) was greater than 100 µM. For the same compound, the GI50 (HOP-92 NSCLC) was 4.24 µM, the TGI (HOP-92 NSCLC) was greater than 100 µM and the GI50 (COLO 205 colon) was 7.16 µM. The TGI (COLO 205 colon) was 71.6 µM, the GI50 (M14 melanoma) was 8.53 µM and the TGI (M14 melanoma) was 55.6 µM. It also gave a GI50 (OVCAR-3 ovarian) of 10.8 µM, a TGI (OVCAR-3 ovarian) greater than 100 µM and a GI50 (786-0 renal) of 19.7 µM. The TGI (786-0 renal) was greater than 100 µM, the GI50 (EKVX NSCLC) was 9.89 µM and the TGI (EKVX NSCLC) was greater than 100 µM. The GI50 (CCRF-CEM leukemia) was 5.54 µM, the TGI (CCRF-CEM leukemia) was greater than 100 µM and the GI50 (HCC-2998 colon) was 15.5 µM. It also gave a TGI (HCC-2998 colon) of 74 µM, a GI50 (SF-295 CNS) of 12.4 µM and a TGI (SF-295 CNS) of 53.2 µM. It also gave a GI50 (UACC-62 melanoma) of 20.3 µM, a TGI (UACC-62 melanoma) greater than 100 µM and a GI50 (HCT-116 colon) of 6.03 µM. For the same compound, the TGI (HCT-116 colon) was greater than 100 µM, the GI50 (RPMI-8226 leukemia) was 2.85 µM and the TGI (RPMI-8226 leukemia) was greater than 100 µM. It also gave a GI50 (OVCAR-4 ovarian) of 9.86 µM, a TGI (OVCAR-4 ovarian) greater than 100 µM and a GI50 (HS 578T breast) of 8.01 µM. For the same compound, the TGI (HS 578T breast) was 94.6 µM, the GI50 (UO-31 renal) was 19.9 µM and the TGI (UO-31 renal) was greater than 100 µM. For the same compound, the GI50 (BT-549 breast) was 3.06 µM, the TGI (BT-549 breast) was 19.9 µM and the GI50 (SF-268 CNS) was 21.5 µM. For the same compound, the TGI (SF-268 CNS) was greater than 100 µM, the GI50 (SNB-75 CNS) was 8.45 µM and the TGI (SNB-75 CNS) was greater than 100 µM. The GI50 (ACHN renal) was 19.5 µM, the TGI (ACHN renal) was greater than 100 µM and the GI50 (PC-3 prostate) was 6.82 µM. For the same compound, the TGI (PC-3 prostate) was greater than 100 µM, the GI50 (NCI-H23 lung) was 14.9 µM and the TGI (NCI-H23 lung) was greater than 100 µM. The GI50 (HOP-62 NSCLC) was 16.1 µM, the TGI (HOP-62 NSCLC) was greater than 100 µM and the GI50 (LOX IMVI melanoma) was 3.82 µM. For the same compound, the TGI (LOX IMVI melanoma) was 20.7 µM, the GI50 (MDA-MB-231 breast) was 4.7 µM and the TGI (MDA-MB-231 breast) was 33.9 µM. It also gave a GI50 (A549 NSCLC) of 10.5 µM, a TGI (A549 NSCLC) greater than 100 µM and a GI50 (IGROV1 ovarian) of 10.7 µM. The TGI (IGROV1 ovarian) was greater than 100 µM, the GI50 (SK-MEL-28 melanoma) was 9.5 µM and the TGI (SK-MEL-28 melanoma) was 28.2 µM. For the same compound, the GI50 (HL-60(TB) leukemia) was 5.41 µM, the TGI (HL-60(TB) leukemia) was 22.1 µM and the GI50 (DU-145 prostate) was 17.8 µM. The TGI (DU-145 prostate) was greater than 100 µM, the GI50 (MOLT-4 leukemia) was 3.2 µM and the TGI (MOLT-4 leukemia) was 21.8 µM. The GI50 (MDA-MB-468 breast) was 13.9 µM, the TGI (MDA-MB-468 breast) was 35 µM and the GI50 (OVCAR-5 ovarian) was 8.01 µM. For the same compound, the TGI (OVCAR-5 ovarian) was greater than 100 µM, the GI50 (UACC-257 melanoma) was 12.6 µM and the TGI (UACC-257 melanoma) was 27.8 µM. For the same compound, the GI50 (NCI-H460 lung) was 6.48 µM, the TGI (NCI-H460 lung) was greater than 100 µM and the GI50 (T-47D breast) was 5.63 µM. It also gave a TGI (T-47D breast) greater than 100 µM, a GI50 (KM12 colon) of 28.7 µM and a TGI (KM12 colon) greater than 100 µM. It also gave a GI50 (MCF7 breast) of 10.1 µM, a TGI (MCF7 breast) greater than 100 µM and a GI50 (A498 renal) of 27.2 µM. It also gave a TGI (A498 renal) of 77.9 µM, a GI50 (K-562 leukemia) of 4.23 µM and a TGI (K-562 leukemia) greater than 100 µM. The GI50 (NCI-H522 lung) was 5.18 µM, the TGI (NCI-H522 lung) was greater than 100 µM and the GI50 (SK-MEL-2 melanoma) was 15.4 µM. The TGI (SK-MEL-2 melanoma) was greater than 100 µM, the GI50 (NCI/ADR-RES ovarian) was 51.4 µM and the TGI (NCI/ADR-RES ovarian) was greater than 100 µM. For the same compound, the GI50 (OVCAR-8 ovarian) was 5.78 µM, the TGI (OVCAR-8 ovarian) was greater than 100 µM and the GI50 (TK-10 renal) was 19.9 µM. For the same compound, the TGI (TK-10 renal) was greater than 100 µM, the GI50 (MDA-MB-435) was 12.4 µM and the TGI (MDA-MB-435) was 42.6 µM. The GI50 (NCI-H226 lung) was 13.8 µM, the TGI (NCI-H226 lung) was greater than 100 µM and the GI50 (SNB-19 CNS) was 28.8 µM. It also gave a TGI (SNB-19 CNS) greater than 100 µM, a GI50 (SF-539 CNS) of 12.1 µM and a TGI (SF-539 CNS) of 45 µM. It also gave a GI50 (CAKI-1 renal) of 5.8 µM, a TGI (CAKI-1 renal) greater than 100 µM and a GI50 (SR leukemia) of 3.01 µM. The TGI (SR leukemia) was 18.2 µM, the GI50 (MALME-3M melanoma) was 11 µM and the TGI (MALME-3M melanoma) was 51.5 µM. The GI50 (RXF 393 renal) was 4.2 µM, the TGI (RXF 393 renal) was 22 µM and the GI50 (HT29 colon) was 6.92 µM. For the same compound, the TGI (HT29 colon) was 57.4 µM, the GI50 (U251 CNS) was 17.8 µM and the TGI (U251 CNS) was greater than 100 µM. It also gave a GI50 (SK-MEL-5 melanoma) of 5.48 µM, a TGI (SK-MEL-5 melanoma) of 19.6 µM and a GI50 (HCT-15 colon) of 7.43 µM. The TGI (HCT-15 colon) was greater than 100 µM.
